Source: US6525001B1, “Substituted pyrimidine and pyridine herbicides” (Mid-American Commercialization Corporation, priority 1997, dated 2003)

Assays:
Format in all cases: in vivo
[1] = system: cocklebur (Xanthium strumarium); assay: Test B pre-/postemergence; design: key: 0 is no effect; 10 is complete control
How it was run: (§1)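 Compounds in a surfactant-containing, non-phytotoxic solvent blend are applied to freshly planted seed (preemergence) and, concurrently, to seedlings of 2 to 18 cm at 1–4 leaves (postemergence). Plants stay in the greenhouse twelve to sixteen days and are then scored visually from 0 (no effect) to 10 (complete control).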

soybean (Glycine max) = assay: Test B pre-/postemergence; design: key: 0 is no effect; 10 is complete control
How it was run: as §1

[2] = system: wheat (Triticum aestivum); assay: Test B pre-/postemergence; design: key: 0 is no effect; 10 is complete control
How it was run: as §1

rape (Brassica napus) = assay: Test B pre-/postemergence; design: key: 0 is no effect; 10 is complete control
How it was run: as §1

[3] = system: crabgrass (Digitaria sanguinalis); assay: Test B pre-/postemergence; design: key: 0 is no effect; 10 is complete control
How it was run: as §1

[4] = system: purple nutsedge (Cyperus rotundus); assay: Test B pre-/postemergence; design: key: 0 is no effect; 10 is complete control
How it was run: as §1

[5] = system: sugar beet (Beta vulgaris); assay: Test B pre-/postemergence; design: key: 0 is no effect; 10 is complete control
How it was run: as §1

[6] = system: pigweed (Amaranthus retroflexus); assay: Test B pre-/postemergence; design: key: 0 is no effect; 10 is complete control
How it was run: as §1

[7] = system: blackgrass (Alopecurus myosuroides); assay: Test B pre-/postemergence; design: key: 0 is no effect; 10 is complete control
How it was run: as §1

[8] = system: velvetleaf (Abutilon theophrasti); assay: Test B pre-/postemergence; design: key: 0 is no effect; 10 is complete control
How it was run: as §1

corn (Zea mays) = assay: Test B pre-/postemergence; design: key: 0 is no effect; 10 is complete control
How it was run: as §1

rice (Oryza sativa) = assay: Test B flood test; details: for Plant response rating, Rice: Postemergence (flood test species)
How it was run: (§2)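 Read-out is a visual response score from 0 (no effect) to 10 (complete control), assigned by comparison with untreated controls. Treatment was applied at the 2-leaf stage, and plants stayed in the greenhouse for twelve to sixteen days before scoring.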

[9] = system: smallflower flatsedge (Cyperus difformis); assay: Test B flood test; details: for Plant response rating, S. Flatsedge: Postemergence (flood test species)
How it was run: as §2

[10] = system: duck salad (Heteranthera limosa); assay: Test B flood test; details: for Plant response rating, Ducksalad: Postemergence (flood test species)
How it was run: as §2

[11] = system: bamyardgrass (Echinochloa crus-galli); assay: Test B flood test; details: for Plant response rating, Barnyardgrass: Postemergence (flood test species)
How it was run: as §2

[12] = Preemergence, Rate 62 g/ha, scale of 0 to 10
[13] = Rate 62 g/ha, Postemergence (flood test)
[14] = Rate 125 g/ha, Postemergence section (flood test species)

Cc1cnc(-n2cnc(C(F)(F)F)n2)nc1C(=O)c1cccc(OC(F)(F)F)c1 [Compound 64]
7: Cocklebur plant response rating ([1]; Rate 125 g/ha, Postemergence) | Plant response rating, Cocklebur ([1]; Rate 250 g/ha, Postemergence) | Plant response rating, Cocklebur ([1]; Rate 500 g/ha, Preemergence) | Plant response rating, Blackgrass ([7]; Rate 250 g/ha, Postemergence) | Velvetleaf plant response rating ([8]; Rate 125 g/ha, Postemergence)
10: Plant response rating, Rape (rape (Brassica napus); Rate 500 g/ha, Preemergence) | Plant response rating, Crabgrass ([3]; Rate 125 g/ha, Preemergence) | Plant response rating, Crabgrass ([3]; Rate 250 g/ha, Preemergence) | Plant response rating, Crabgrass ([3]; Rate 500 g/ha, Preemergence) | Sugarbeets plant response rating ([5]; Rate 125 g/ha, Postemergence) | Plant response rating, Sugarbeets ([5]; Rate 125 g/ha, Preemergence) | Plant response rating, Sugarbeets ([5]; Rate 250 g/ha, Postemergence) | Plant response rating, Sugarbeets ([5]; Rate 250 g/ha, Preemergence) | Plant response rating, Sugarbeets ([5]; Rate 500 g/ha, Postemergence) | Plant response rating, Sugarbeets ([5]; Rate 500 g/ha, Preemergence) | Plant response rating, Redroot pigweed ([6]; Rate 250 g/ha, Postemergence) | Plant response rating, Redroot pigweed ([6]; Rate 250 g/ha, Preemergence) | Plant response rating, Redroot pigweed ([6]; Rate 500 g/ha, Postemergence) | Plant response rating, Redroot pigweed ([6]; Rate 500 g/ha, Preemergence) | Plant response rating, Velvetleaf ([8]; Rate 500 g/ha, Preemergence)
0: Plant response rating, Soybean (soybean (Glycine max); [12]) | Plant response rating, Wheat [2, 12] | Plant response rating, Wheat ([2]; Rate 125 g/ha, Preemergence) | Plant response rating, Nutsedge [4, 12] | Nutsedge plant response rating ([4]; Rate 62 g/ha, Postemergence) | Nutsedge plant response rating ([4]; Rate 125 g/ha, Postemergence) | Plant response rating, Nutsedge ([4]; Rate 250 g/ha, Postemergence)
3: Soybean plant response rating (soybean (Glycine max); Rate 125 g/ha, Postemergence) | Wheat plant response rating ([2]; Rate 125 g/ha, Postemergence) | Plant response rating, Wheat ([2]; Rate 250 g/ha, Postemergence) | Plant response rating, Rape (rape (Brassica napus); [12]) | Rape plant response rating (rape (Brassica napus); Rate 62 g/ha, Postemergence) | Plant response rating, Corn (corn (Zea mays); [12]) | Corn plant response rating (corn (Zea mays); Rate 125 g/ha, Postemergence) | Plant response rating, Corn (corn (Zea mays); Rate 125 g/ha, Preemergence) | Plant response rating, Rice (rice (Oryza sativa); Rate 500 g/ha) | Barnyardgrass plant response rating [11, 14]
1: Plant response rating, Cocklebur [1, 12] | Plant response rating, Cocklebur ([1]; Rate 125 g/ha, Preemergence) | Plant response rating, Soybean (soybean (Glycine max); Rate 125 g/ha, Preemergence) | Plant response rating, Soybean (soybean (Glycine max); Rate 250 g/ha, Preemergence) | Plant response rating, Soybean (soybean (Glycine max); Rate 500 g/ha, Preemergence) | Plant response rating, Wheat ([2]; Rate 250 g/ha, Preemergence) | Corn plant response rating (corn (Zea mays); Rate 62 g/ha, Postemergence) | Rice plant response rating (rice (Oryza sativa); [13]) | Rice plant response rating (rice (Oryza sativa); [14])
9: Plant response rating, Cocklebur ([1]; Rate 500 g/ha, Postemergence) | Plant response rating, Crabgrass [3, 12] | Plant response rating, Crabgrass ([3]; Rate 250 g/ha, Postemergence) | Plant response rating, Crabgrass ([3]; Rate 500 g/ha, Postemergence) | Plant response rating, Sugarbeets [5, 12] | Sugarbeets plant response rating ([5]; Rate 62 g/ha, Postemergence) | Plant response rating, Redroot pigweed [6, 12] | Redroot pigweed plant response rating ([6]; Rate 125 g/ha, Postemergence) | Plant response rating, Redroot pigweed ([6]; Rate 125 g/ha, Preemergence) | Plant response rating, Blackgrass ([7]; Rate 500 g/ha, Postemergence) | Plant response rating, Blackgrass ([7]; Rate 500 g/ha, Preemergence) | Plant response rating, Velvetleaf ([8]; Rate 500 g/ha, Postemergence) | Plant response rating, S. Flatsedge ([9]; Rate 500 g/ha) | Plant response rating, Ducksalad ([10]; Rate 500 g/ha)
2: Soybean plant response rating (soybean (Glycine max); Rate 62 g/ha, Postemergence) | Wheat plant response rating ([2]; Rate 62 g/ha, Postemergence) | Plant response rating, Wheat ([2]; Rate 500 g/ha, Preemergence) | Plant response rating, Nutsedge ([4]; Rate 500 g/ha, Postemergence) | Plant response rating, Nutsedge ([4]; Rate 500 g/ha, Preemergence) | Velvetleaf plant response rating ([8]; Rate 62 g/ha, Postemergence) | Plant response rating, Rice (rice (Oryza sativa); Rate 250 g/ha) | Barnyardgrass plant response rating [11, 13]
8: Plant response rating, Rape (rape (Brassica napus); Rate 250 g/ha, Preemergence) | Redroot pigweed plant response rating ([6]; Rate 62 g/ha, Postemergence) | Plant response rating, Velvetleaf ([8]; Rate 250 g/ha, Postemergence) | S. Flatsedge plant response rating [9, 13] | S. Flatsedge plant response rating [9, 14] | Plant response rating, S. Flatsedge ([9]; Rate 250 g/ha)
6: Cocklebur plant response rating ([1]; Rate 62 g/ha, Postemergence) | Plant response rating, Soybean (soybean (Glycine max); Rate 500 g/ha, Postemergence) | Plant response rating, Blackgrass ([7]; Rate 125 g/ha, Preemergence) | Plant response rating, Blackgrass ([7]; Rate 250 g/ha, Preemergence) | Plant response rating, Velvetleaf ([8]; Rate 125 g/ha, Preemergence) | Plant response rating, Velvetleaf ([8]; Rate 250 g/ha, Preemergence) | Ducksalad plant response rating [10, 14] | Plant response rating, Ducksalad ([10]; Rate 250 g/ha)
4: Rape plant response rating (rape (Brassica napus); Rate 125 g/ha, Postemergence) | Plant response rating, Rape (rape (Brassica napus); Rate 125 g/ha, Preemergence) | Plant response rating, Rape (rape (Brassica napus); Rate 250 g/ha, Postemergence) | Plant response rating, Rape (rape (Brassica napus); Rate 500 g/ha, Postemergence) | Crabgrass plant response rating ([3]; Rate 62 g/ha, Postemergence) | Blackgrass plant response rating ([7]; Rate 62 g/ha, Postemergence) | Plant response rating, Velvetleaf [8, 12] | Plant response rating, Corn (corn (Zea mays); Rate 250 g/ha, Postemergence) | Plant response rating, Corn (corn (Zea mays); Rate 250 g/ha, Preemergence) | Plant response rating, Corn (corn (Zea mays); Rate 500 g/ha, Preemergence) | Ducksalad plant response rating [10, 13] | Plant response rating, Barnyardgrass ([11]; Rate 250 g/ha)
5: Plant response rating, Soybean (soybean (Glycine max); Rate 250 g/ha, Postemergence) | Plant response rating, Wheat ([2]; Rate 500 g/ha, Postemergence) | Crabgrass plant response rating ([3]; Rate 125 g/ha, Postemergence) | Plant response rating, Blackgrass [7, 12] | Blackgrass plant response rating ([7]; Rate 125 g/ha, Postemergence) | Plant response rating, Corn (corn (Zea mays); Rate 500 g/ha, Postemergence) | Plant response rating, Barnyardgrass ([11]; Rate 500 g/ha)
